Test results from patent publication US20020106342A1, “Methods for treating atopic disorders” (priority 2000, published 2002).

System: skin fungal conditions
Test: Patients with skin fungal conditions treated with griseovulvin and an appropriate antibiotic, emollients ceased (Example 6)
Assay type: in vivo, human
Text: Most patients received an antihistamine for the first ten days to control itch. The patients ceased the use of lotions and other emollients, as well as the use of local and systemic corticosteroids.

## COC1=CC(=O)C[C@@H](C)[C@]12Oc1c(Cl)c(OC)cc(OC)c1C2=O [griseovulvin]
Patient A, after 35 days of treatment
  Appearance of "dry skin": cleared up considerably
Patient B, one week later
  Fungus on skin: improved dramatically
Patient C, after treatment
  Fungus on skin: significantly improved
Patient D, after seven weeks
  Fungus growth on back of neck: significantly diminished
Patient F, after seven weeks of treatment
  Fungal condition of skin: improving and peeling off
Patient G, after seven weeks
  Fungal infection tinea barbae: significantly cleared
Patient H, after nine weeks of treatment
  Skin with hair follicles infected by fungus: dramatically improved
